Here are results for 41 compounds from article PMC9995496, “A screen for MeCP2-TBL1 interaction inhibitors using a luminescence-based assay” (Scientific Reports, 2023).

Where a name gives a salt, the structure may show the parent alone. Read-outs that look alike come from different tables or passages of the source. Numbered stars: 1 amine (or outer) side, 2 acyl side, 3 side chain; on linkers, the order of the positions; unused ones are H or OH. Bridge positions count the residues as written; N and C are the ends. Square brackets hold non-standard residues; d marks the D form. Peptide text beside a SMILES is read from it. * marks the point of attachment. hTyr(3S-OH,4S-OH,3'-OSO3H) = N[C@H](C(=O)O)[C@H](O)[C@@H](O)c1ccc(O)c(OS(=O)(=O)O)c1; Orn(4R-OH,5R-OH) = O=C([C@H](C[C@@H](O)[C@@H](O)N[*:3])N[*:1])[*:2]; Pro(3S-OH,4S-Me) = C[C@H]1CN[C@H](C(=O)O)[C@H]1O; X1 = CCCCCOc1ccc(-c2cc(-c3ccc(C(=O)*)cc3)no2)cc1; Gln(3R-OH) = NC(=O)C[C@@H](O)[C@H](N)C(=O)O; Hyp = O=C(O)[C@@H]1C[C@@H](O)CN1; Cbz = O=C(OCc1ccccc1)*; CH2F = FC*

For the experiment, the system named is PRKACA-PRKAR2A interaction (SmBiT-PRKACA / LgBiT-PRKAR2A), protein kinase A. Set-up: NanoLuc complementation counter-screen in cell extract, PRKACA with PRKAR2A, loss of luminescence, detects NanoLuc interference. The conditions noted are these: 0.5 h, 20 µM, inhibitor.
[1] abbreviates: counter-screen for NanoLuc interference.
Where [2] appears, read: counter-screen for NanoLuc interference, Inh (PKA).

With `CCCCCOc1ccc(-c2cc(-c3ccc(C(=O)N[C@H]4C[C@@H](O)[C@@H](O)NC(=O)[C@@H]5[C@@H](O)[C@@H](C)CN5C(=O)[C@H]([C@H](O)CC(N)=O)NC(=O)[C@H]([C@H](O)[C@@H](O)c5ccc(O)c(OS(=O)(=O)O)c5)NC(=O)[C@@H]5C[C@@H](O)CN5C(=O)[C@H]([C@@H](C)O)NC4=O)cc3)no2)cc1` [UM0141585:01, Micafungin sodium] (X1-[Orn(4R-OH,5R-OH)]T[Hyp][hTyr(3S-OH,4S-OH,3'-OSO3H)][Gln(3R-OH)][Pro(3S-OH,4S-Me)]; lactam 1-C), the “Inh (PKA)” value under setting [1] was found to be 7.755%.

Turning to `COCCc1ccc(OCC(O)CNC(C)C)cc1` (centres unmarked) [UM0142210:01, Metoprolol Tartrate], the “Inh (PKA)” value under setting [1] is 1.896%.

On to `C=CC(=O)Nc1cc(Nc2nccc(-c3cn(C)c4ccccc34)n2)c(OC)cc1N(C)CCN(C)C` [UM0142170:01, AZD-9291], for which the “Inh (PKA)” value under setting [1] amounted to 6.598%.

In the case of `COc1c(Cl)cc2c([nH]c3cnccc32)c1NC(=O)c1cccnc1C` [UM0141589:01, MLN120B], the “Inh (PKA)” value under setting [1] worked out at 5.314%.

As for `COc1ccc(CNC(=O)Nc2ncc([N+](=O)[O-])s2)cc1` [UM0127858:02, AR-A014418], the “Inh (PKA)” value under setting [1] was determined as 66.01%.

Consider `Nc1ccc2cc3ccc(N)cc3nc2c1` [UM0142377:01, Proflavine Hemisulfate], for which, under setting [1], the “Inh (PKA)” value worked out at 0.7107%.

As to `CCOC(=O)c1cncn1[C@H](C)c1ccccc1` [UM0133274:02, Etomidate], the “Inh (PKA)” value was determined as 13.38%.

In the case of `O=C(Cc1ccc(-c2ccc(OCCN3CCOCC3)cc2)cn1)NCc1ccccc1` [UM0142472:01, KX2-391], under setting [2], the “Inh (PKA)” value stood at 3.767%.

In the case of `C/C(=C\C(=O)Nc1ccccc1C(=O)O)c1ccc2ccccc2c1` [UM0138522:02, BIBR 1532], the “Inh (PKA)” value under setting [1] amounted to 77.2%.

For the compound `CSc1cccc(Nc2ncc3cc(-c4c(Cl)cccc4Cl)c(=O)n(C)c3n2)c1` [UM0142139:01, PD173955], under setting [1], the “Inh (PKA)” value turned out to be 37.99%.

On to `CCN(CC)CCCC(C)Nc1nc(C)cc(Nc2ccc3nc(C)cc(N)c3c2)n1` (centres unmarked) [UM0141436:01, NSC 23766], for which, under setting [1], the “Inh (PKA)” value was 2.521%.

As for `Cc1nn(C)c2c1C(c1ccc(C(F)(F)F)cc1)C(C#N)=C(N)O2` (centres unmarked) [UM0142152:01, BQU57], the “Inh (PKA)” value under setting [1] was 14.94%.

Take `CCCNC(=O)[C@H]1O[C@@H]1C(=O)N[C@H](C(=O)N1CCC[C@H]1C(=O)OC)[C@@H](C)CC` [UM0141967:01, CA-074 Me]: under setting [1], the “Inh (PKA)” value is recorded as -0.4464%.

As for `COc1ccc(S(=O)(=O)N(CCO)c2ccccc2CN(C)C/C=C/c2ccc(Cl)cc2)cc1` [UM0141574:01, KN-93], the “Inh (PKA)” value under setting [2] is listed as 44.92%.

As to `COC(=O)Nc1nc2cc(C(=O)c3ccc(F)cc3)ccc2[nH]1` [UM0142358:01, Flubendazole], under setting [1], the “Inh (PKA)” value was 6.18%.

As to `COc1ccc(COc2ccc(Cc3cnc(N)nc3N)cc2OC)cc1` [UM0127855:02, GW2580], the “Inh (PKA)” value under setting [1] was determined as 7.237%.

Take `C[C@H]1[C@H](C)CC[C@]2(C(=O)O[C@@H]3O[C@H](CO[C@@H]4O[C@H](CO)[C@@H](O[C@@H]5O[C@H](C)[C@H](O)[C@@H](O)[C@H]5O)[C@H](O)[C@H]4O)[C@@H](O)[C@H](O)[C@H]3O)CC[C@]3(C)C(=CC[C@@H]4[C@@]5(C)C[C@@H](O)[C@H](O)[C@@](C)(CO)[C@@H]5CC[C@]43C)[C@H]12` [UM0142844:01, Asiaticoside]: under setting [1], the “Inh (PKA)” value is listed as -0.7873%.

In the case of `COc1c(C)c(C(=O)c2ccc(N)c(C(=O)O)c2)n2ccccc12` [UM0142292:01, SSR128129E], under setting [1], the “Inh (PKA)” value was 31.08%.

For `Nc1ncn([C@H]2C[C@H](O)[C@@H](CO)O2)c(=O)n1` [UM0128548:04, Decitabine (NSC127716, 5AZA-CdR)], the “Inh (PKA)” value under setting [1] amounted to 0.991%.

On to `CCCCc1oc2ccc(NS(C)(=O)=O)cc2c1C(=O)c1ccc(OCCCN(CCCC)CCCC)cc1` [UM0141544:01, Dronedarone], for which, under setting [1], the “Inh (PKA)” value worked out at 6.648%.

Take `O=C(c1ccc(Cl)cc1)N(Cc1ccccc1)C1CCCCC1` [UM0142831:01, FPS-ZM1]: the “Inh (PKA)” value under setting [1] is 22.08%.

Turning to `Nc1ncnc2c1ncn2C1CCCO1` (centres unmarked) [UM0142780:01, SQ 22536], the “Inh (PKA)” value under setting [1] is -2.134%.

As to `CCCc1nn(C)c2c(=O)[nH]c(-c3cc(S(=O)(=O)N4CCN(C)CC4)ccc3OCC)nc12` [UM0141628:01, Sildenafil], the “Inh (PKA)” value under setting [2] was -0.5342%.

As for `CN1CCN2c3ccccc3Cc3ccccc3C2C1` (centres unmarked) [UM0118451:03, Mianserin HCl], the “Inh (PKA)” value under setting [1] is given as 11.82%.

As for `Cc1cc(Nc2cc(N3CCN(C)CC3)nc(Sc3ccc(NC(=O)C4CC4)cc3)n2)n[nH]1` [UM0127961:02, VX-680 (MK-0457,Tozasertib)], under setting [1], the “Inh (PKA)” value turned out to be 9.039%.

`CC[C@H](C)[C@H](NC(=O)[C@H](CCC(=O)OC)NC(=O)[C@@H](NC(=O)OCc1ccccc1)C(C)C)C(=O)N[C@@H](CC(=O)OC)C(=O)CF` [UM0141430:01, Z-VEID-FMK] (Cbz-VE(OMe)ID(OMe)-CH2F): the “Inh (PKA)” value under setting [1] is recorded as -0.4163%.

With `COC(=O)[C@H](c1ccccc1Cl)N1CCc2sccc2C1` [UM0141874:01, Clopidogrel], the “Inh (PKA)” value under setting [1] came out at 72.93%.

Turning to `O=C(Cc1ccc(-c2ccc(OCCN3CCOCC3)cc2)cn1)NCc1ccccc1` [UM0141575:01, KX2-391 dihydrochloride], the “Inh (PKA)” value under setting [2] came to 3.66%.

As for `CCCC(C(=O)OCCN(CC)CC)(c1ccccc1)c1ccccc1` [UM0118177:04, SKF 525A (hydrochloride)], the “Inh (PKA)” value under setting [1] was determined as 14.38%.

Consider `CNC(=O)c1ccccc1Nc1cc(Nc2ccc(N3CCOCC3)cc2OC)ncc1C(F)(F)F` [UM0141607:01, PND-1186], for which the “Inh (PKA)” value under setting [1] came to 14.93%.

Regarding `CCOC(=O)c1ccc(C#Cc2ccc3c(c2)C(C)(C)CCS3)nc1` [UM0141904:01, Tazarotene], the “Inh (PKA)” value under setting [1] was 17.58%.

Regarding `C[C@]12CCC3=C4CCC(=O)C=C4CC[C@H]3[C@@H]1CC[C@@]2(O)CC#N` [UM0142287:01, Dienogest], the “Inh (PKA)” value under setting [1] is -0.135%.

For `Cc1ccc(NC(=O)CCCCCC(=O)Nc2ccccc2N)cc1` [UM0141846:01, TC-H 106], under setting [1], the “Inh (PKA)” value came to 6.356%.

With `Cc1cc(NC(=O)c2cccc(NC(=O)/C=C/CN(C)C)c2)ccc1Nc1nccc(-c2cccnc2)n1` [UM0141569:01, JNK-IN-8], the “Inh (PKA)” value under setting [1] is reported as 12.62%.

As to `C1CCc2nnnn2CC1` [UM0118375:03, Pentylenetetrazole], the “Inh (PKA)” value under setting [1] is -0.7973%.

Turning to `C=CC(=O)Nc1ccc2ncnc(Nc3ccc(OCc4cccc(F)c4)c(Cl)c3)c2c1` [UM0142018:01, AST-1306], under setting [1], the “Inh (PKA)” value amounted to 12.53%.

For `Cc1cc(Nc2ncc(Cl)c(Nc3ccccc3S(=O)(=O)C(C)C)n2)c(OC(C)C)cc1C1CCNCC1` [UM0141993:01, LDK378], the “Inh (PKA)” value under setting [1] is on record as 11.01%.

In the case of `CC(C)(C)c1cc(C=C(C#N)C#N)cc(Br)c1O` [UM0127805:02, AG-1024], the “Inh (PKA)” value under setting [1] is reported as 81.26%.

With `COCCCOc1ccnc(C[S+]([O-])c2nc3ccccc3[nH]2)c1C` (centres unmarked) [UM0142515:01, Rabeprazole], under setting [1], the “Inh (PKA)” value turned out to be 0.62%.

For the compound `CC(C)[C@H](O)C(=O)N[C@@H](C)C(=O)N[C@@H]1C(=O)N(C)CCc2ccccc21` [UM0141939:01, Semagacestat (LY450139)], the “Inh (PKA)” value under setting [1] is listed as -0.02723%.

`COc1cc2ncnc(Nc3ccc(F)c(Cl)c3)c2cc1NC(=O)/C=C/CN1CCCCC1` [UM0141985:01, Dacomitinib (PF299804, PF299)]: the “Inh (PKA)” value under setting [1] worked out at 10.53%.
